From US11542240B2, “STK19 inhibitors for treatment of cancer” (TRUSTEES OF BOSTON UNIVERSITY, priority 2018, dated 2023)
Where two headings read alike, the source gives them in different places.

Assays:
Assay in all cases: biochemical
Type in all cases: binding
[1] = target: panel of 468 diverse kinases (Homo sapiens, UniProt Q9H093); details: SNARK; 1000 nM; read-out: Percent Control
[2] = target: panel of 468 diverse kinases (Homo sapiens, UniProt Q13557); details: CAMK2D; 1000 nM; read-out: Percent Control
[3] = target: panel of 468 diverse kinases (Homo sapiens, UniProt P54762); details: EPHB1; 1000 nM; read-out: Percent Control
[4] = target: panel of 468 diverse kinases (Homo sapiens, UniProt O60331); details: PIP5K1C; 1000 nM; read-out: Percent Control
[5] = target: panel of 468 diverse kinases (Homo sapiens, UniProt P52564); details: MEK6; 1000 nM; read-out: Percent Control
[6] = target: panel of 468 diverse kinases (Homo sapiens, UniProt O95835); details: LATS1; 1000 nM; read-out: Percent Control
[7] = target: panel of 468 diverse kinases (Homo sapiens, UniProt Q13043); details: MST1; 1000 nM; read-out: Percent Control
[8] = target: panel of 468 diverse kinases (Homo sapiens, UniProt P17948); details: FLT1; 1000 nM; read-out: Percent Control
[9] = target: panel of 468 diverse kinases (Homo sapiens, UniProt Q9UBE8); details: NLK; 1000 nM; read-out: Percent Control
[10] = target: panel of 468 diverse kinases (Homo sapiens, UniProt Q9NY57); details: YANK2; 1000 nM; read-out: Percent Control
[11] = target: panel of 468 diverse kinases (Homo sapiens, UniProt P42345); details: MTOR; 1000 nM; read-out: Percent Control
[12] = target: panel of 468 diverse kinases (Homo sapiens, UniProt Q12852); details: DLK; 1000 nM; read-out: Percent Control
[13] = target: panel of 468 diverse kinases (Homo sapiens, UniProt P29320); details: EPHA3; 1000 nM; read-out: Percent Control
[14] = target: panel of 468 diverse kinases (Homo sapiens, UniProt Q15746); details: MYLK; 1000 nM; read-out: Percent Control
[15] = target: panel of 468 diverse kinases (Homo sapiens, UniProt P41743); details: PRKCI; 1000 nM; read-out: Percent Control
[16] = target: panel of 468 diverse kinases (Homo sapiens, UniProt P45984); details: JNK2; 1000 nM; read-out: Percent Control
[17] = target: panel of 468 diverse kinases (Homo sapiens, UniProt P12931); details: SRC; 1000 nM; read-out: Percent Control
[18] = target: panel of 468 diverse kinases (Homo sapiens, UniProt Q8N5S9); details: CAMKK1; 1000 nM; read-out: Percent Control
[19] = target: panel of 468 diverse kinases (Homo sapiens, UniProt O43353); details: RIPK2; 1000 nM; read-out: Percent Control
[20] = target: panel of 468 diverse kinases (Homo sapiens, UniProt P22455); details: FGFR4; 1000 nM; read-out: Percent Control
[21] = target: panel of 468 diverse kinases (Homo sapiens, UniProt P53779); details: JNK3; 1000 nM; read-out: Percent Control
[22] = target: panel of 468 diverse kinases (Homo sapiens, UniProt P07333); details: 1000 nM, read-out: Percent Control
[23] = target: panel of 468 diverse kinases (Homo sapiens, UniProt P54760); details: EPHB4; 1000 nM; read-out: Percent Control
[24] = target: panel of 468 diverse kinases (Homo sapiens, UniProt Q15835); details: GRK1; 1000 nM; read-out: Percent Control
[25] = target: panel of 468 diverse kinases (Homo sapiens, UniProt P42336); details: PIK3CA; 1000 nM; read-out: Percent Control
[26] = target: panel of 468 diverse kinases (Homo sapiens, UniProt Q56UN5); details: YSK4; 1000 nM; read-out: Percent Control
[27] = target: panel of 468 diverse kinases (Homo sapiens, UniProt Q00532); details: CDKL1; 1000 nM; read-out: Percent Control
[28] = target: panel of 468 diverse kinases (Homo sapiens, UniProt Q9Y2K2); details: QSK; 1000 nM; read-out: Percent Control
[29] = target: panel of 468 diverse kinases (Homo sapiens, UniProt P48736); details: PIK3CG; 1000 nM; read-out: Percent Control
[30] = target: panel of 468 diverse kinases (Homo sapiens, UniProt Q15208); details: NDR1; 1000 nM; read-out: Percent Control
[31] = target: panel of 468 diverse kinases (Homo sapiens, UniProt P08922); details: ROS1; 1000 nM; read-out: Percent Control

panel of 468 diverse kinases (Homo sapiens, UniProt P07333), sequence (P07333 20-972 limits assumed): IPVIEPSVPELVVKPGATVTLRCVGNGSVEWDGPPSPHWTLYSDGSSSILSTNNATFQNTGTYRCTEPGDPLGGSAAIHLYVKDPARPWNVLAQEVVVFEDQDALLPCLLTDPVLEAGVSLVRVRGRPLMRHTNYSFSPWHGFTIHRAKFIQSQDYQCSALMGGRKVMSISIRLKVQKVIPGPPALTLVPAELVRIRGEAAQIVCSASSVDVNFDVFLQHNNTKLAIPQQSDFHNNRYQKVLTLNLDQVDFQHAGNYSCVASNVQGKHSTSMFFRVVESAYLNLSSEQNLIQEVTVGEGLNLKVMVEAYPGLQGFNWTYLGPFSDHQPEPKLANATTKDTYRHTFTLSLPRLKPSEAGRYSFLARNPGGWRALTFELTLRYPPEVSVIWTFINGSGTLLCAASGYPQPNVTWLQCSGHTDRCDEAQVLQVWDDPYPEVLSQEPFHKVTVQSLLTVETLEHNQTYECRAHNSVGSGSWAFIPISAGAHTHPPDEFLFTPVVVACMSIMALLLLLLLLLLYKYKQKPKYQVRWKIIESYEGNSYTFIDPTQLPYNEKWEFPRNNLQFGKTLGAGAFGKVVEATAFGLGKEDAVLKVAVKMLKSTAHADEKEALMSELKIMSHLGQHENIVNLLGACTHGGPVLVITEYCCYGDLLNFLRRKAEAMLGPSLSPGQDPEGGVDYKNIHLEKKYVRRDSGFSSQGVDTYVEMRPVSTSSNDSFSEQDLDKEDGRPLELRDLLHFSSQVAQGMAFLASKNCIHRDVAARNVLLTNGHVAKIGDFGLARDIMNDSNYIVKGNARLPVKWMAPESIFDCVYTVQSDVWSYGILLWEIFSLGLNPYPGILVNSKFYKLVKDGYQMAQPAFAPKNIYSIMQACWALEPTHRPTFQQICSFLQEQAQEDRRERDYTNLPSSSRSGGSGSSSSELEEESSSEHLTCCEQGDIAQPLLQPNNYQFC
panel of 468 diverse kinases (Homo sapiens, UniProt P54760), sequence (P54760 16-987 limits assumed): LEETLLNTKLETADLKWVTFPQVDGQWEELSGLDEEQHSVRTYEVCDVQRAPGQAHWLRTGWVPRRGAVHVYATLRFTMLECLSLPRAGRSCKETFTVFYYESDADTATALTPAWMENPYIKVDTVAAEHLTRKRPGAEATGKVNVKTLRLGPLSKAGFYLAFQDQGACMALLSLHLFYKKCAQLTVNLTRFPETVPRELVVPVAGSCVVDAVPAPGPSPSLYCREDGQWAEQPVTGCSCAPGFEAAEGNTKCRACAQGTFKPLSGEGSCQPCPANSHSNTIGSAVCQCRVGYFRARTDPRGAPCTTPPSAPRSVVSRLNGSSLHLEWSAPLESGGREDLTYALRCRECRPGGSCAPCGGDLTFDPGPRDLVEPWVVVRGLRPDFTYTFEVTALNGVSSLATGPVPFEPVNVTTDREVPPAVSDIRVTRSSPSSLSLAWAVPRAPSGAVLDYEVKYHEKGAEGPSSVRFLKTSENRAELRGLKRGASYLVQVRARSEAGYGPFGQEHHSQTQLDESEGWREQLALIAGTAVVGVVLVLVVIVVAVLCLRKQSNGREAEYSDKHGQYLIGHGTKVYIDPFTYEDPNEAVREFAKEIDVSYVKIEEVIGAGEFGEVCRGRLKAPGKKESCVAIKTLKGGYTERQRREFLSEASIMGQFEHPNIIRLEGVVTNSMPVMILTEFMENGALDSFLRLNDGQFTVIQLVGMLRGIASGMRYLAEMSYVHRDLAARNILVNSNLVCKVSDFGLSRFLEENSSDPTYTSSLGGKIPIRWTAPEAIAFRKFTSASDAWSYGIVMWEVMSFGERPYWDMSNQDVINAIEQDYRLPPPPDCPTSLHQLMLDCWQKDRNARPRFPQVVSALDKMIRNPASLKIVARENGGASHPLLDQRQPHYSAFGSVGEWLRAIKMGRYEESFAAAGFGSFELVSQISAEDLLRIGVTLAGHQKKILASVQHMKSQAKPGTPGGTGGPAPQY
panel of 468 diverse kinases (Homo sapiens, UniProt P54762), sequence (P54762 18-984 limits assumed): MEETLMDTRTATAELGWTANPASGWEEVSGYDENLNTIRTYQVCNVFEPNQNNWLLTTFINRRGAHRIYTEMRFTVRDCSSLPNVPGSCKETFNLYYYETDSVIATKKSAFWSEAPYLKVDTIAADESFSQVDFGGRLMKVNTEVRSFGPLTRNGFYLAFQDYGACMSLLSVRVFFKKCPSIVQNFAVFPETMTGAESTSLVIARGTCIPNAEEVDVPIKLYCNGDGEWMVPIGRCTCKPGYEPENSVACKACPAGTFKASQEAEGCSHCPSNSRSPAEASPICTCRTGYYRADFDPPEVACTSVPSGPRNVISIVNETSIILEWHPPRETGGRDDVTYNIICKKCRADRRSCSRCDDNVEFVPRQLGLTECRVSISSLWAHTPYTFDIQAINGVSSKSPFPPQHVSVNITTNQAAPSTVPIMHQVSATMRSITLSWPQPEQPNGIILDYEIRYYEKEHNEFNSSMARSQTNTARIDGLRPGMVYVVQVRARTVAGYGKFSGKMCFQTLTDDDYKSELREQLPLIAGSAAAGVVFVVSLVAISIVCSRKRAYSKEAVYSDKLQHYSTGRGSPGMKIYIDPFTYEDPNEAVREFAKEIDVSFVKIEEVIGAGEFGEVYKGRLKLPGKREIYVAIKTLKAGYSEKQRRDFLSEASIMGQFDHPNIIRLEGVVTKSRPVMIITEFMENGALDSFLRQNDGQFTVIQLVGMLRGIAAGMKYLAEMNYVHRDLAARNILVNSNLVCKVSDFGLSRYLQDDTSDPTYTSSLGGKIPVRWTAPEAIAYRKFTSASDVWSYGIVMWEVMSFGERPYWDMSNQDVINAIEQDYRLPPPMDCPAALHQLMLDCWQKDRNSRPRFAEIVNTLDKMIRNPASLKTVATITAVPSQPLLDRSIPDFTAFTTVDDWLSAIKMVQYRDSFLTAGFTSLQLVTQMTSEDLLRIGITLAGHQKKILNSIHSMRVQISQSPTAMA
panel of 468 diverse kinases (Homo sapiens, UniProt P22455), sequence (P22455 22-802 limits assumed): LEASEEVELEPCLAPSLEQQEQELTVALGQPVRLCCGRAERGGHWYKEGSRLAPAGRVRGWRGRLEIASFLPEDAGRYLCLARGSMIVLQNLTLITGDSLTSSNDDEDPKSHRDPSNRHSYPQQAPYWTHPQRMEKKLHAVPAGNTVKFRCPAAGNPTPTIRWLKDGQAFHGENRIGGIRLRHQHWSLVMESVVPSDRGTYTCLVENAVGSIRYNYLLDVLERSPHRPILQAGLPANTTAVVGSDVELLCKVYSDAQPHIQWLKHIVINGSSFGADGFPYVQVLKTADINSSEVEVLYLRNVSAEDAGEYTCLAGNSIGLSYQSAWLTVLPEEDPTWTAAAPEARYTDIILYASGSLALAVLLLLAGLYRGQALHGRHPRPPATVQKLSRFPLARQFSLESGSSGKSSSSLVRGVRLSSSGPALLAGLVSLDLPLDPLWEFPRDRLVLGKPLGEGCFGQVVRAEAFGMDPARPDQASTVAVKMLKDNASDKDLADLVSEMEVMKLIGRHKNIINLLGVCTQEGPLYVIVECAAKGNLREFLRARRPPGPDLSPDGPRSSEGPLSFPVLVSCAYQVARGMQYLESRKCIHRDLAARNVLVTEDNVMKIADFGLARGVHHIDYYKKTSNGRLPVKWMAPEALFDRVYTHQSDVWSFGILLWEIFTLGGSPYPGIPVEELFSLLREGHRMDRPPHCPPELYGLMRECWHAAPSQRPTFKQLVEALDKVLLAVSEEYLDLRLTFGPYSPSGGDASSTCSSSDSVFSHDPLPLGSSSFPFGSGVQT
panel of 468 diverse kinases (Homo sapiens, UniProt P17948), sequence (P17948 27-1338 limits assumed): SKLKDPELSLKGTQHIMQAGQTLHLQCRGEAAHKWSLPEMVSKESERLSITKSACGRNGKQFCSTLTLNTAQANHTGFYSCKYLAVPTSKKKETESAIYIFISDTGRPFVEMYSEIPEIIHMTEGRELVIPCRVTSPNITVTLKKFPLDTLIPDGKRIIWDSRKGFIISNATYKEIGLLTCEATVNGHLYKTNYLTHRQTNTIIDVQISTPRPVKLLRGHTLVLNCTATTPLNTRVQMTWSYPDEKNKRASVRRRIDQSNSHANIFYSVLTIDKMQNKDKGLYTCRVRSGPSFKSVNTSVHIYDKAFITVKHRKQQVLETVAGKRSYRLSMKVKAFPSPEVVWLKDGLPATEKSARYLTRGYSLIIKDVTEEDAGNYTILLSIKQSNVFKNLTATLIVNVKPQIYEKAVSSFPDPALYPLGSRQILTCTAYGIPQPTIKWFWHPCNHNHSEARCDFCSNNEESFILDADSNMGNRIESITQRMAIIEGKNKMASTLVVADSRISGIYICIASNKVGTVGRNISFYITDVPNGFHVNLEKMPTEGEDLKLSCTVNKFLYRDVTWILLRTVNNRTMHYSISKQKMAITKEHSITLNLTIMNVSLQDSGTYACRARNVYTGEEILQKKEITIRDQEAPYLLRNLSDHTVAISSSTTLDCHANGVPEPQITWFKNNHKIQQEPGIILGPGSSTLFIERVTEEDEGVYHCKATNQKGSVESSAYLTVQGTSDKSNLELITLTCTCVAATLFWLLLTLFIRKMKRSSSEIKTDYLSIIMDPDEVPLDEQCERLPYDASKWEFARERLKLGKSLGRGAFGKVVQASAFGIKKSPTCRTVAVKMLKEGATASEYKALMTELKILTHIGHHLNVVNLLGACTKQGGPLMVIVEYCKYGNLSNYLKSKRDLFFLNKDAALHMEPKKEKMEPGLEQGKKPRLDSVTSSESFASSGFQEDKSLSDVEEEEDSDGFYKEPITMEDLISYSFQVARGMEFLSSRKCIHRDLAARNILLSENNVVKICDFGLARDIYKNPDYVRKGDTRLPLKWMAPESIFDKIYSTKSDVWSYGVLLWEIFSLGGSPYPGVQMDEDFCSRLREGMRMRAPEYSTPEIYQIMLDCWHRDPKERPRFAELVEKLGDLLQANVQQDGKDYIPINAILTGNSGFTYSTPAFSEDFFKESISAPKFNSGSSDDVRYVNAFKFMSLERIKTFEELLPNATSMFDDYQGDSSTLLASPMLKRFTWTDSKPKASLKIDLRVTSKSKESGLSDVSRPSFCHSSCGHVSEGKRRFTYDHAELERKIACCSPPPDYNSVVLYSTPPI

COc1cc2nc(NC3CC3)nc(NC3CCN(C(C)C)CC3)c2cc1OC [Formula IV]
remaining activity at 1 µM [1]: 57% | remaining activity at 1 µM [2]: 89% | remaining activity at 1 µM [3]: 89% | remaining activity at 1 µM [4]: 100% | remaining activity at 1 µM [5]: 99% | remaining activity at 1 µM [6]: 100% | remaining activity at 1 µM [7]: 84% | remaining activity at 1 µM [8]: 95% | remaining activity at 1 µM [9]: 100% | remaining activity at 1 µM [10]: 56% | remaining activity at 1 µM [11]: 87% | remaining activity at 1 µM [12]: 62% | remaining activity at 1 µM [13]: 93% | remaining activity at 1 µM [14]: 49% | remaining activity at 1 µM [15]: 71% | remaining activity at 1 µM [16]: 45% | remaining activity at 1 µM [17]: 97% | remaining activity at 1 µM [18]: 97% | remaining activity at 1 µM [19]: 94% | remaining activity at 1 µM [20]: 100% | remaining activity at 1 µM [21]: 100% | remaining activity at 1 µM ([22]; CSF1R-autoinhibited): 54% | remaining activity at 1 µM ([22]; CSF1R): 91% | remaining activity at 1 µM [23]: 100% | remaining activity at 1 µM [24]: 67% | remaining activity at 1 µM [25]: 97% | remaining activity at 1 µM [26]: 78% | remaining activity at 1 µM [27]: 53% | remaining activity at 1 µM [28]: 44% | remaining activity at 1 µM [29]: 83% | remaining activity at 1 µM [30]: 81% | remaining activity at 1 µM [31]: 90%
